Reference: patent publication US20100048545A1, “Compounds and Compositions for Use in the Prevention and Treatment of Disorders of Fat Metabolism and Obesity” (INNODIA INC., priority 2006, published 2010)
“Also recorded” adds a separate entry of the source. Where two headings read alike, the source gives them in different places.

Key:
[1] = system: Wistar rat model of diet-induced obesity; experiment: Food consumption, weight gain and plasma triglycerides in Wistar rat model of diet-induced obesity, 28 days; type: in vivo, Wistar rats; conditions: for triglycerides plasma levels: 28 days
Text: A total of 60 animals were used in the study. The animals were distributed into 6 groups; 1 group was fed standard chow, 1 group was fed a high fat, high sucrose (HFHS) diet with 28 days treatment, 1 untreated control group was fed a HFHS diet, and 1 untreated group was fed a HFHS diet, but with caloric intake restricted to match the caloric intake of the 4-OH treated animals (pair-fed animals). A fifth group was fed a high fat, high sucrose (HFHS) diet with 28 days treatment and received an acute oral administration of 4-OH just prior to experimentation on Day 29 of the study, and a sixth group was fed a HFHS diet, but with caloric intake restricted to match the caloric intake of the 4-OH treated animals receiving an acute oral administration of 4-OH on Day 29 of the study (pair-fed animals). Each group was composed of 10 animals. […] Body weights were measured once weekly from week 1 to week 4 of the study. For the four weeks of treatment, the test article 4-OH was dissolved in reverse osmosis water. 4-OH aliquoted and kept at 4° C. […] Untreated animals received water twice daily.

FatB1 = experiment: RT-PCR gene expression in adipocytes of treated rats: FatB1; type: in vivo; conditions: data not shown
Protocol: (§1) As the ex vivo studies on adipocytes indicated the lipolytic effect of drug was due to chronic exposure (see previous example), a role in gene regulation was assessed. RT-PCR was used to assess the expression of genes in the adipocytes from treated and control animals.

ATGL = experiment: RT-PCR gene expression in adipocytes of treated rats: ATGL; type: in vivo
Protocol: as §1

[2] = system: Wistar rats fed HFHS diets; experiment: Energy expenditure (oxygen consumption) by indirect calorimetry in HFHS fed rats; type: in vivo; conditions: 100 mg/kg oral gavage twice daily, 4 weeks, vs pair fed and HFHS control, p<0.01
Protocol: A study was conducted to determine whether the decrease in adiposity as described above was due to increased energy expenditure. For this study, Wistar rats were randomized into 3 groups (n=10/group) and fed HFHS diets. […] The second group of animals served as pair fed controls, and while not treated with drug, diet in terms of caloric intake was matched to treated animals. The third group was fed a HFHS diet ad libitum without any treatment. After a 4 week period of treatment these animals were assessed by indirect calorimetry with increased oxygen consumption used as an indicator of increased energy expenditure.

[3] = system: diet induced obese (DIO) animals; experiment: Fixed dose of 4-hydroxyisoleucine in diet induced obese (DIO) animals, 21 days; type: in vivo, C57BL/6 mice; conditions: for Significance vs controls (P; body weight and body weight gain): 2 way ANOVA, Bonferroni
Protocol: C57BL/6 mice were fed a high fat diet (60% fat) for 6 weeks. […] This regime was continued for the remaining 21 day period and the dose given was not adjusted as the mice lost body weight. This method of dosing was designed to mimic the human situation when the quantity of drug given is not adjusted with progressive body weight loss. […] Statistical analysis of the data was performed using a 2 way ANOVA followed by Bonferroni comparisons. Food intake was measured daily and then combined over a 7 day period to calculate total consumption during each week of drug administration.

DIO-mice [4] = type: in vivo
Text: The objective of this study was to evaluate the effect of chronic administration of 4-hydroxyisoleucine (4-OH, compound 14a) on food consumption and body weight gain of DIO-mice. Both parameters were monitored for 1 week prior to the commencement of treatment, then for the 77 days of treatment and for an additional 12 days post-treatment.
C57BL/6 mice were received at 7-8 weeks of age and fed a high fat diet (60% of calories from fat) for several weeks. A total of 32 animals were used in the study. The animals were distributed into 4 groups (3 treated, 1 control group, all on high fat diet). Each group was composed of 8 animals. The mice were randomized according to body weight and basal glycemia values following a 5±0.5 hour fasting period.
The test agent was dissolved in reverse osmosis water. 4-Hydroxyisoleucine was aliquoted and kept at 4° C. Control animals received reverse osmosis water twice daily (group 1). Mice from groups 2, 3 and 4 were treated twice daily with 4-hydroxyisoleucine (4-OH, compound 14a) at 100, 50, and 25 mg/kg, respectively. All groups were treated by oral gavage. Treatment commenced on Day 0 and ended on Day 77. Food consumption was measured daily and averaged on a weekly basis beginning one week before the start of treatment as shown in FIG. 16B. Similarly, food consumption was monitored during the treatment period and for 12 days after treatment was stopped as shown in FIGS. 16A and 16B.

DIO-mice [5] = conditions: for food consumption: 4-OH 50 or 100 mg/kg
Text: The objective of this study was to evaluate the effect of chronic administration of 4-hydroxyisoleucine (4-OH, compound 14a) and Rosiglitazone, administered alone or in combination, on food consumption and body weight gain of DIO-mice. Both parameters were monitored for 1 week prior to the commencement of treatment, then for the 28 days of treatment and for an additional 7 days post-treatment.
A total of 72 animals were used in the study. The animals were distributed into 6 groups (5 treated, 1 control group, all on high fat diet). Each group was composed of 12 animals. The mice were randomized according to body weight and basal glycemia values following a 5±0.5 hour fasting period.
For the four weeks of treatment, the test articles were dissolved in reverse osmosis water. 4-Hydroxyisoleucine was aliquoted and kept at 4° C. (administration to groups 2, 3, and 6), while Rosiglitazone was freshly prepared daily and kept at 4° C. between the AM and PM administration to groups 4, 5, and 6. Control animals received reverse osmosis water twice daily (group 1). Mice from groups 2 and 3 were treated twice daily with 4-OH at 50 and 100 mg/kg, respectively. Animals from groups 4 and 5 received 1.5 and 5 mg/kg of Rosiglitazone, respectively. […] All groups were treated by oral gavage. Treatment commenced on Day 0 and ended on Day 28 (FIGS. 18A and 18C.
Food consumption was measured and averaged on a weekly basis beginning one week before the start of treatment as shown in FIGS. 18B and 18D as week −1. Similarly, food consumption was monitored for one week after treatment was stopped and is shown as week 5 in FIGS. 18B and 18D, In FIG. 18B, the food consumption over time for various treatment groups is illustrated by the bar graph.

## C[C@@H]([C@H](C)O)[C@H](N)C(=O)O [Compound 14a, (2S,3R,4S)-4-Hydroxyisoleucine]
[1]; 100 mg/kg twice daily, p<0.05
  triglycerides plasma levels: lower triglycerides plasma levels
  weight gain after 28 days of treatment: significantly decreased compared to the pair fed group and the HFHS control group
[1]; 100 mg/kg twice daily, p<0.05, listed as 4-OH
  triglycerides plasma levels: significantly decreased compared to the respective pair fed groups
[1]; 100 mg/kg twice daily, first week, vs HFHS control
  food consumption: slightly decreased
[1]; chronic 4-OH plus an acute oral administration on Day 29, p<0.05
  weight gain after 28 days of treatment: significantly decreased compared to the respective pair-fed group and the HFHS control group
FatB1
  expression of FatB1: Upregulation
ATGL
  expression of ATGL, increase: more than two times
ATGL; HFHS diet, treated for 4 weeks (28 days)
  Increase (x times) in expression of ATGL: 2.6 x times
[2]
  oxygen consumption (energy expenditure), night phase: oxygen consumption was increased
[3]; 75 mg/kg, Days 7 to 21
  Significance vs controls (P; body weight and body weight gain): P < 0.05
[3]; 100 mg/kg, Days 7 to 21
  Significance vs controls (P; body weight and body weight gain): P < 0.05
[3]; 125 mg/kg, Days 6 to 21
  Significance vs controls (P; body weight and body weight gain): P < 0.05
[3]; 150 mg/kg bid
  body weight plateau: approximately 30 gm
  body weight reduction: 13 gm
[3]; 150 mg/kg bid, day 21
  visual appearance of animals: visually indisingishable from lean mice of the same age
[3]; 150 mg/kg, Days 5 to 21
  Significance vs controls (P; body weight and body weight gain): P < 0.05
[3]; 50, 75, 100, 125 and 150 mg/kg bid, oral, fixed dose, 21 days
  body weight: dose-dependent reduction in body weight
[3]; end of treatment, epididymal fat (FIG. 17C)
  weight of fat tissues: concomitant reduction in the weight of fat tissues
[3]; highest doses, each of the 3 weeks, p<0.05
  food intake: reduction in food intake at the highest doses administered
DIO-mice [4]; 100 mg/kg twice daily, Day 28 to Day 84
  body weight gain: significantly effective at controlling body weight gain
DIO-mice [4]; 100 mg/kg twice daily, Day 28 to Day 84, listed as 4-OH
  body weight gain: sustained and highly significant
DIO-mice [4]; 100 mg/kg twice daily, first week of treatment
  food consumption: slight decrease in food consumption
DIO-mice [4]; 100 mg/kg, first week following cessation of treatment
  body weight gain and food consumption after treatment was stopped: increase in the first week following cessation of treatment
DIO-mice [4]; 25, 50 and 100 mg/kg twice daily, oral gavage, 77 days
  tolerability of treatment: well-tolerated
DIO-mice [4]; 50 and 100 mg/kg twice daily, first three weeks of treatment
  body weight gain: moderation of weight gain was observed
DIO-mice [5]; 4-OH 100 mg/kg twice daily
  weight gain: Moderation of weight gain was observed
DIO-mice [5]; first week of treatment, listed as 4-OH
  food consumption: food consumption decreased; also recorded: reduction in food consumption during the first week, but not after
DIO-mice [5]; remainder of the treatment phase
  food consumption: consumption returned to pre-treatment levels
DIO-mice [5]; Rosiglitazone 1.5 mg/kg with 4-OH 50 mg/kg, relative to the group treated with Rosiglitazone alone
  weight gain: able to modulate the weight gain induced by Rosiglitazone
